Reference: ChEMBL document CHEMBL1201862, “PubChem BioAssay data set” (2004)
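Exposure lasted 48 hours, with cells grown in 96-well plates and compounds tested at five concentrations. GI50: concentration for 50% inhibition of growth.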 The source made the active and inactive calls. No stated cut-off is given here; in the data, active = GI50 up to about 1.1 µM and inactive = higher.

Columns and labels:
Experiment in all cases: growth of human tumour cells (NCI), 48 h
[1] = system: 786-0
[2] = system: KM-20L2
[3] = system: UACC-257
[4] = system: SW-620
[5] = system: OVCAR-5
[6] = system: A498
[7] = system: SNB-19
[8] = system: KM12
[9] = system: OVCAR-8
[10] = system: Malme-3M
[11] = system: SK-OV-3
[12] = system: HOP-18
[13] = system: EKVX
[14] = system: A549
[15] = system: SF-295
[16] = system: NCI-H522
[17] = system: OVCAR-3
[18] = system: HCC 2998
[19] = system: U-251
[20] = system: SK-MEL-28
[21] = system: NCI-H226
[22] = system: SR
[23] = system: TK-10
[24] = system: SNB-75
[25] = system: LXFL 529
[26] = system: LOX IMVI
[27] = system: NCI-H23
[28] = system: DLD-1
[29] = system: SN12C
[30] = system: ACHN
[31] = system: DMS-273
[32] = system: COLO 205
[33] = system: M19-MEL
[34] = system: SNB-78
[35] = system: HCT-116
[36] = system: HCT-15
[37] = system: M14
[38] = system: NCI-H460
[39] = system: HT-29
[40] = system: SF-539
[41] = system: HOP-62
[42] = system: UACC-62
[43] = system: HL-60
[44] = system: SK-MEL-2
[45] = system: CAKI-1
[46] = system: CCRF-CEM
[47] = system: K562
[48] = system: XF498
[49] = system: OVCAR-4
[50] = system: IGROV-1
[51] = system: HOP-92
[52] = system: SF-268
[53] = system: DMS-114

Question: What does the source list for `Nc1nc(N)c(N=O)c(Nc2ccc(Br)cc2)n1`?
Answer: GI50 [1]: 28.7 µM (inactive); GI50 [2]: 25.3 µM (inactive); GI50 [3]: 15.6 µM (inactive); GI50 [4]: 33.5 µM (inactive); GI50 [5]: 31.2 µM (inactive); GI50 [6]: 17.6 µM (inactive); GI50 [7]: 45.1 µM (inactive); GI50 [8]: 33.8 µM (inactive); GI50 [9]: 27.2 µM (inactive); GI50 [10]: 13.3 µM (inactive); GI50 [11]: 32.4 µM (inactive); GI50 [12]: 11.2 µM (inactive); GI50 [13]: 40.8 µM (inactive); GI50 [14]: 41.9 µM (inactive); GI50 [15]: 29 µM (inactive); GI50 [16]: 17.9 µM (inactive); GI50 [17]: 13.1 µM (inactive); GI50 [18]: 78.9 µM (inactive); GI50 [19]: 15.9 µM (inactive); GI50 [20]: 16.6 µM (inactive); GI50 [21]: 32.2 µM (inactive); GI50 [22]: > 100 µM (inactive); GI50 [23]: 29.1 µM (inactive); GI50 [24]: 10.4 µM (inactive); GI50 [25]: 15.3 µM (inactive); GI50 [26]: 18.2 µM (inactive); GI50 [27]: 23.4 µM (inactive); GI50 [28]: 10.4 µM (inactive); GI50 [29]: 17.8 µM (inactive); GI50 [30]: 6.58 µM (inactive); GI50 [31]: 17.5 µM (inactive); GI50 [32]: 19.9 µM (inactive); GI50 [33]: 30.5 µM (inactive); GI50 [34]: 41.5 µM (inactive); GI50 [35]: 13.3 µM (inactive); GI50 [36]: 15.3 µM; GI50 [37]: 16.2 µM (inactive); GI50 [38]: 26.5 µM (inactive); GI50 [39]: 15.8 µM (inactive); GI50 [40]: 16.9 µM (inactive); GI50 [41]: 14.6 µM (inactive); GI50 [42]: 5.5 µM (inactive); GI50 [43]: > 100 µM (inactive); GI50 [44]: 21.4 µM (inactive); GI50 [45]: 29.4 µM (inactive); GI50 [46]: 18.2 µM (inactive); GI50 [47]: > 100 µM (inactive); GI50 [48]: 18.8 µM (inactive); GI50 [49]: 48 µM (inactive); GI50 [50]: 3.46 µM (inactive); GI50 [51]: 15.4 µM (inactive); GI50 [52]: 12.9 µM (inactive); GI50 [53]: 21.8 µM (inactive)
